The values below come from ChEMBL document CHEMBL1158780, “Anti-Helicobacter pylori compounds from Santalum album” (2005).

Type in all cases: functional
The subject of assay [1] is Helicobacter pylori. The experiment in a line: Antimicrobial activity against Helicobacter pylori SS1 at 100 ug/disk after 4 days by disk diffusion method. The conditions noted are these: SS1, 96 h, read-out: IZ. For orientation: A growth-free zone around the sample is the usual read-out of agar diffusion tests.
Assay [2] deals with Helicobacter pylori. The experiment in a line: Antimicrobial activity against Helicobacter pylori ATCC 43504 at 100 ug/disk after 4 days by disk diffusion method. The conditions noted are these: ATCC 43504, 96 h, read-out: IZ.
For assay [3], the system named is Helicobacter pylori. The assay is described as follows: Antimicrobial activity against Clarithromycin-resistant Helicobacter pylori TS281 after 4 days by twofold plate dilution method. The conditions noted are these: 96 h.
Assay [4] concerns Helicobacter pylori. The experiment in a line: Antimicrobial activity against Helicobacter pylori ATCC 43504 after 4 days by twofold plate dilution method. The conditions noted are these: ATCC 43504, 96 h.
Assay [5] has as its system Helicobacter pylori. The assay is described as follows: Antimicrobial activity against Helicobacter pylori Sa-3 isolate after 4 days by twofold plate dilution method. The following applies: 96 h.
In assay [6] the test system is Helicobacter pylori. The assay is described as follows: Antimicrobial activity against Helicobacter pylori ATCC 43504 at 250 ng/disk after 4 days by disk diffusion method.
Assay [7] relates to Helicobacter pylori. The experiment in a line: Antimicrobial activity against Helicobacter pylori SS1 at 250 ng/disk after 4 days by disk diffusion method.
In assay [8] the test system is Helicobacter pylori. The assay is described as follows: Antimicrobial activity against Helicobacter pylori Sa-2 isolate after 4 days by twofold plate dilution method. The conditions noted are these: 96 h.
The test system of assay [9] is Helicobacter pylori. The experiment in a line: Antimicrobial activity against Helicobacter pylori TPH30 after 4 days by twofold plate dilution method. The following applies: 96 h.
Assay [10] relates to Helicobacter pylori. The experiment in a line: Antimicrobial activity against Helicobacter pylori Sa-1 isolate after 4 days by twofold plate dilution method. The conditions noted are these: 96 h.
Assay [11] relates to Helicobacter pylori. The experiment in a line: Antimicrobial activity against Helicobacter pylori SS1 after 4 days by twofold plate dilution method. The following applies: SS1, 96 h.
Assay [12] deals with Helicobacter pylori. The experiment in a line: Antimicrobial activity against Clarithromycin-resistant Helicobacter pylori TS648 after 4 days by twofold plate dilution method. The conditions noted are these: 96 h.

For orientation: MIC means the least concentration at which growth counts as inhibited. Read a high MIC as weaker potency.

SMILES strings stand for the structures. ≈ marks a conversion by molar mass, not a printed value.

Consider `C/C(=C/CC[C@]1(C)[C@H]2CC[C@]1(C)[C@@H](O)C2)CO`, for which the values for the zone of inhibition at 100 µg/disc in the assay on Helicobacter pylori [1] and with Helicobacter pylori [2] were 22.8 mm and 28.9 mm, respectively.

Turning to `CC1(CCC=C(CO)CO)C2CC3C(C2)C31C` (stereo not drawn), the zone of inhibition at 100 µg/disc in the assay on Helicobacter pylori [1] is 25.9 mm; with Helicobacter pylori [2], 38.7 mm.

With `C/C(=C/CC[C@@]1(C)[C@@H]2CC[C@@H](C2)[C@@]1(C)O)CO`, the values for the zone of inhibition at 100 µg/disc in the assay on Helicobacter pylori [1] and with Helicobacter pylori [2] were 16.8 mm and 20.1 mm, respectively.

Take `C/C(=C/CC[C@@]1(C)C2CC[C@@](C)(C2)[C@@H]1O)CO`: the zone of inhibition at 100 µg/disc in the assay on Helicobacter pylori [1] was 15.5 mm; in the assay on Helicobacter pylori [2] it was 27.6 mm.

For `CC1(C)S[C@@H]2[C@H](NC(=O)[C@H](N)c3ccc(O)cc3)C(=O)N2[C@H]1C(=O)O` [AMOXICILLIN], the MIC came out at 0.5 µg/mL (≈ 1.37 µM) against Helicobacter pylori [3]; 0.06 µg/mL (≈ 0.164 µM) with Helicobacter pylori [4]; 0.25 µg/mL (≈ 0.684 µM) against Helicobacter pylori [5]; 0.06 µg/mL (≈ 0.164 µM) in the assay on Helicobacter pylori [8]; 0.25 µg/mL (≈ 0.684 µM) in the assay on Helicobacter pylori [9]; 0.06 µg/mL (≈ 0.164 µM) in the assay on Helicobacter pylori [10]. Further, the minimal inhibitory concentration (MIC) was determined as 0.25 µg/mL (≈ 0.684 µM) with Helicobacter pylori [11] and 0.13 µg/mL (≈ 0.356 µM) in the assay with Helicobacter pylori [12]. Further, the “inhibition zone (IZ)” value in the assay with Helicobacter pylori [6] is 35.3 mm; with Helicobacter pylori [7], 20.3 mm.

On to `C/C(=C/CC[C@@]1(C)[C@H]2CC[C@]1(C)[C@H](O)C2)CO`, for which the zone of inhibition at 100 µg/disc in the assay with Helicobacter pylori [1] is 11.1 mm; with Helicobacter pylori [2], 27.1 mm.

`C=C1[C@H]2CC[C@H](C2)[C@@]1(C)CC/C=C(/C)CO`: the MIC against Helicobacter pylori [3], against Helicobacter pylori [4], against Helicobacter pylori [5], with Helicobacter pylori [8], in the assay on Helicobacter pylori [9] and against Helicobacter pylori [10] was 7.8 µg/mL (≈ 35.4 µM) each time. The values for the MIC against Helicobacter pylori [11] and against Helicobacter pylori [12] were 31.3 µg/mL (≈ 142 µM) and 7.8 µg/mL (≈ 35.4 µM), respectively. The zone of inhibition at 100 µg/disc with Helicobacter pylori [1] stood at 13.5 mm; with Helicobacter pylori [2], 27.2 mm.

For `C/C(=C/CC[C@]1(C)C2C[C@@H]3[C@H](C2)C31C)CO`, the MIC amounted to 15.6 µg/mL (≈ 70.8 µM) in the assay on Helicobacter pylori [3]; 15.6 µg/mL (≈ 70.8 µM) in the assay with Helicobacter pylori [4]; 7.8 µg/mL (≈ 35.4 µM) with Helicobacter pylori [5]; 31.3 µg/mL (≈ 142 µM) against Helicobacter pylori [8]; 15.6 µg/mL (≈ 70.8 µM) against Helicobacter pylori [9]; 7.8 µg/mL (≈ 35.4 µM) against Helicobacter pylori [10]. The MIC with Helicobacter pylori [11] was 31.3 µg/mL (≈ 142 µM); with Helicobacter pylori [12], 7.8 µg/mL (≈ 35.4 µM). Further, the zone of inhibition at 100 µg/disc in the assay on Helicobacter pylori [1] stood at 11.5 mm; with Helicobacter pylori [2] it was 21.6 mm.

As for `C=C1[C@H]2CC[C@H](C2)[C@]1(C)CCC=C(CO)CO`, the zone of inhibition at 100 µg/disc in the assay on Helicobacter pylori [1] is 10.4 mm; in the assay on Helicobacter pylori [2], 21.1 mm.

Take `CC[C@H]1OC(=O)[C@H](C)[C@@H](O[C@H]2C[C@@](C)(OC)[C@@H](O)[C@H](C)O2)[C@H](C)[C@@H](O[C@@H]2O[C@H](C)C[C@H](N(C)C)[C@H]2O)[C@](C)(OC)C[C@@H](C)C(=O)[C@H](C)[C@@H](O)[C@]1(C)O` [CLARITHROMYCIN]: the MIC against Helicobacter pylori [3] is 32 µg/mL (≈ 42.8 µM); against Helicobacter pylori [4] it was at most 0.06 µg/mL; with Helicobacter pylori [5] it was at most 0.06 µg/mL; in the assay on Helicobacter pylori [8] it was at most 0.06 µg/mL; in the assay with Helicobacter pylori [9] it was at most 0.06 µg/mL; in the assay with Helicobacter pylori [10], at most 0.06 µg/mL. The MIC is at most 0.06 µg/mL against Helicobacter pylori [11] and 2 µg/mL (≈ 2.67 µM) against Helicobacter pylori [12].

Take `C=C(CC/C=C(\C)CO)[C@@H]1CC=C(C)CC1`: the MIC in the assay with Helicobacter pylori [3] is 62.5 µg/mL (≈ 284 µM); with Helicobacter pylori [4], 62.5 µg/mL (≈ 284 µM); in the assay on Helicobacter pylori [5], 31.3 µg/mL (≈ 142 µM); against Helicobacter pylori [8], 62.5 µg/mL (≈ 284 µM); against Helicobacter pylori [9], 62.5 µg/mL (≈ 284 µM); in the assay on Helicobacter pylori [10], 31.3 µg/mL (≈ 142 µM). The MIC was 125 µg/mL (≈ 567 µM) with Helicobacter pylori [11] and 31.3 µg/mL (≈ 142 µM) against Helicobacter pylori [12]. The zone of inhibition at 100 µg/disc amounted to 10.6 mm in the assay on Helicobacter pylori [1] and 11.9 mm with Helicobacter pylori [2].

Consider `C/C(=C/CCC(C)(O)c1ccc(C)cc1)CO` (stereo not drawn), for which the values for the zone of inhibition at 100 µg/disc with Helicobacter pylori [1] and in the assay with Helicobacter pylori [2] were 11.2 mm and 24.9 mm, respectively.

In the case of `C=C(CC/C=C(/C)CO)[C@H]1CC[C@@](C)(O)CC1`, the zone of inhibition at 100 µg/disc in the assay on Helicobacter pylori [2] worked out at 8.9 mm.
